Source: patent publication US11535597B2, “Photoreactive ligands and uses thereof” (The Scripps Research Institute, priority 2017, dated 2022)
Entries after “also recorded” stand apart in the source; their conditions may differ.

Columns and labels:
PTGR2 [1] = biological target: T1, PTGR2 (Homo sapiens, UniProt Q8N8N7); experiment: In vitro LCMS-based activity assay for PTGR2 (15-keto-PGE2 reductase activity); assay type: biochemical
Procedure: Aliquots (1 μL) of test compounds dissolved in DMSO were transferred to 1.5 mL eppendorf tubes followed by addition of recombinant human PTGR2 (44 μL, 200 nM final concentration) in freshly prepared reaction buffer (Tris Buffer, 1 mM EDTA, 50 μM TCEP, 300 μM NADPH). The resulting mixture was vortexed and then incubated at 37° C. for 20 min. Next, a 5 μL solution of 15-keto-PGE2 substrate (20 μM final concentration) in reaction buffer was added and the reaction was allowed to proceed for 30 min at 37° C. Reactions were quenched by the addition of 0.5% AcOH in ethyl acetate (800 μL), water (300 μL) and 100 μL of internal standard PGE2-d4 (30 pmol/sample) dissolved in 1:1 methanol/water. Phases were separated by centrifugation and the organic layer was collected and dried under a stream of N2, then stored at −80° C. until analysis. Directly prior to analysis, samples were reconstituted in 100 μL of MeCN:H2O (1:1, v/v) and analyzed by LC/MS/MS. All conditions were performed in triplicate and repeated at least three independent times.
The following MS parameters were used to measure the indicated metabolites by MRM (precursor ion, product ion, collision energy, polarity): PGE2-d4 (355, 275, 18), 13,14-dihydro-15-keto-PGE2 (351, 333, 18) and 15-keto-PGE2 (349, 161, 20). 15-keto-PGE2 and 13,14-dihydro-15-keto-PGE2 levels were quantified by determining peak areas in relation to internal standard PGE2-d4. Non-deuterated 15-keto-PGE2 and 13,14-dihydro-15-keto-PGE2 standards were used to confirm retention time and fragmentation.
All data fitting and statistical analysis performed using GraphPad Prism version 6.00 for Windows, GraphPad Software, La Jolla Calif. USA, www.graphpad.com. Statistical values including the exact n and statistical significance are also reported. Probe binding blockade and PTGR2 inhibition curves are plotted as mean±SD (n=3 or 4 per group) for a representative biological replicate using a variable slope (four parameter) non-linear fit. Gene expression data are presented as mean±SD (n=3 per group). HSC5 metabolite data are shown as mean±SD (n=3 per group). Statistical significance was defined as P<0.05 and determined by 2-tailed Student t tests, or two-way ANOVA with Bonferroni's post-tests.

PTGR2 [2] = biological target: T1, PTGR2; experiment: PPARγ luciferase reporter assay in PTGR2-transfected HEK293T cells (15-keto-PGE2-dependent); assay type: cell-based; conditions: cells recombinantly expressing PTGR2
Procedure: HEK293T cells were transiently co-transfected using Polyethylenimine (Sigma) with a UAS-Luciferase reporter and a vector expressing the heterologous GAL4 DNA binding domain (DBD) or a GAL4 DNA binding domain::PPARγ ligand binding domain (LBD) chimeric protein, and full-length PTGR2. 24 hr after transfection, cells were treated either with vehicle (DMSO), 15k-PGE2 (20 μM), or fragment compounds. Rosiglitazone (2 μM), a synthetic PPARγ ligand, was used as control. 16 hr after incubation, cells were lysed in Cell Culture Lysis Reagent (Promega) and luciferase activity measured using the Luciferase Assay System (Promega).

T1 sequence (Q8N8N7 whole entry): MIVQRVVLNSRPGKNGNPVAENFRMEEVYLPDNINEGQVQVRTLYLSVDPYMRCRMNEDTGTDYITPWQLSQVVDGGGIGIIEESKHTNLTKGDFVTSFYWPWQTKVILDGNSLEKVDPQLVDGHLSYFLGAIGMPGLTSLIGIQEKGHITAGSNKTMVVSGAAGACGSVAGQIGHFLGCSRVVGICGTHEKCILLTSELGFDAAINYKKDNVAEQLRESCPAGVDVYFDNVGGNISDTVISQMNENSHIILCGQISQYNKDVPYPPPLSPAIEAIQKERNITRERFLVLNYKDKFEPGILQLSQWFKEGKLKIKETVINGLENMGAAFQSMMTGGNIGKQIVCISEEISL

COc1ccccc1N1CCN(C(=O)Cc2ccccc2)CC1 [Compound 22, 1-(4-(2-Methoxyphenyl)piperazin-1-yl)-2-phenylethan-1-one] was tested, and the “effect on 15-keto-PGE2 reductase (catalytic) activity of recombinant PTGR2” value (PTGR2 [1]) was “inhibited”, the “increased potency relative to 20” value (PTGR2 [1]; in assays measuring either competition of 8-labeling or 15-keto-PGE2 reductase activity of recombinant PTGR2) was > 20 fold and the IC50 (PTGR2 [1]; recombinant PTGR2, read-out: IC50 for inhibition of PTGR2-mediated reduction of 15-keto-PGE2 (15-keto-PGE2 reductase activity)) was 600 nM. For the same molecule, the “15-keto-PGE2-dependent PPARγ transcriptional activity” value (PTGR2 [2]) was “increased; also recorded: concentration-dependent rescue”.
